Consider 2 molecules from patent US20180289764A1, “TRADITIONAL CHINESE MEDICINE COMPOSITION FOR TREATING PSORIASIS” (Guangdong Provincial Hospital of Chinese Medicine, priority 2015, published 2018).

One assay relates to psoriasis. The following applies: systemic treatment of psoriasis, background table; cited from earlier work.
Assay [1] deals with mouse tail scaled epidermis. The assay is described as follows: Effects on the mouse tail scaled epidermis. Type of assay: in vivo, KM mice. The source says:
60 KM mice weighing 18-25 g with half males and half females were selected in this study, the mice were qualified in an adaptive breeding observation. The mice were layered with Excel according to weights, 6 mice every layer, and the mice in each layer were randomly assigned to each group, 10 mice every group, and the mice were divided into 6 groups in total, that is normal control group, the group of the present invention, the group of patent 200910091066.5, the group of the patent of 201210183904.3, the group of methotrexate tablet and the group of yujin yinxie tablet. The mice in each group were given by intragastric administration at a volume of 20 mL·kg-1·d-1 in the morning, once every day for 14 days. The normal control group was given equal volume of pure water. The mice were sacrificed one hour after the last administration, and a long strip of the dorsal skin of the root of the mouse tail (about 1.0 cm×0.2 em) was took off and fixed with 10% formaldehyde solution, embedded in paraffin, and stained with HE. The tail scales of each mouse were observed under an optical microscope. Those where the granulosa layers arranged in rows are in the epidermis of scales between the two follicular orifice, are known as the scales with granulosa layer. […]

Assay [2] has as its system propranolol-induced guinea pig psoriasis model. The assay is described as follows: Propranolol-induced guinea pig psoriasis model. Type of assay: in vivo, Hartley guinea pigs. The method, then: The preparation of 5% propranolol hydrochloride emulsion: 5 g propranolol hydrochloride was dissolved with 50% ethanol, 5 mL 1,2-propanediol was added as a composite accelerator, and 5 g PVPK30 was added as a film-forming material. 50% ethanol was added to 100 mL, and preparing into 5% propranolol hydrochloride emulsion until used
80 Hartley guinea pigs weighing 200-250 g with half males and half females were selected in this study, the Hartley guinea pigs were qualified in an adaptive breeding observation. 10 guinea pigs (half male and half female) were used as a normal control group based on a random allocation, and no drugs were administrated to them; the other 70 guinea pigs (half males and half females) were treated with 5% propranolol hydrochloride emulsion (about 200 μL) evenly in the skins behind both of ears, 2 times a day, continuing treating 4 weeks, for modeling. 4 weeks later, 10 guinea pigs were sacrificed to examine whether the model was successful (with the thickness of the ear skin as an index). The remaining 60 guinea pigs were then layered with Excel according to weights, 6 guinea pigs every layer, and the guinea pigs in each layer were randomly assigned to each group, 10 guinea pigs every group, and the guinea pigs were divided into 6 groups in total, that is the model control group, the group of the present invention, the group of patent 201210183904.3, the group of the patent of 200910091066.5, the group of methotrexate tablet and the group of yujin yinxie tablet. The guinea pigs in each group were given by intragastric administration at a volume of 20 mL·kg-1·d-1 in the morning, once every day for 10 days. The normal control group and the model control group were given equal volume of pure water. The guinea pigs were sacrificed one hour after the last administration, and the skin behind both of ears was took off and fixed with 10% formaldehyde solution, embedded in paraffin, and stained with HE, observed under an optical microscope. 10 high-power fields were counted, the thickness of the epidermis was measured with a micrometer, and averaged; the auricular pathology of guinea pigs was used to perform a histological examination, observe vasodilation situations, which were denoted as 0, 0.5, 1 and 2 points according to normal, light, medium and heavy degrees.

Molecules are shown by their SMILES.

With `CC1=C(/C=C/C(C)=C/C=C/C(C)=C/CO)C(C)(C)CCC1` [Vitamin A, vitamin A (retinol)], the “Efficacy rate (the efficient)” value with psoriasis is listed as 25%.

Regarding `CN(Cc1cnc2nc(N)nc(N)c2n1)c1ccc(C(=O)N[C@@H](CCC(=O)O)C(=O)O)cc1` [methotrexate tablet, methotrexate], the “Formation of the epidermis granulosa layer of the mouse tail scale compared with normal control group” value in assay [1] (intragastric 14 days, P<0.05 or P<0.01) is “significantly promote the formation of the epidermis granulosa layer of the mouse tail scale”. For the same molecule, the “The number of scales in the granulosa layer” value in assay [1] (per 100 scales, expressed as a percentage, intragastric once daily for 14 days, x ± s, n = 10) is recorded as 43.65 ± 11.18. The same molecule showed a Blood vessel dilatation in assay [2] (0, 0.5, 1, 2 points for normal, light, medium, heavy, intragastric 10 days, x ± s, n = 10) of 0.42 ± 0.12 score. Further, the “Effect on epidermis thickness of guinea pig ears and hemangiectasis compared with model control” value in assay [2] (P<0.01) is “significantly reduce the thickness of the epidermis of guinea pig ears and reduce hemangiectasis”. Besides, the Histopathological examination entry in assay [2] (guinea pig ear skin, HE stain) is “hyperkeratosis and parakeratosis was obviously alleviated”. Also, in assay [2] (guinea pig ear skin, intragastric once daily for 10 days, x ± s, n = 10), the Epidermal thickness amounted to 96.61 ± 4.78 μm. Moreover, the “Efficacy rate (the efficient)” value in the assay on psoriasis was 20-40%.
